pIC50: −log10 of the molar value.
What was measured:
PANC-1 [1] = test: Anticancer activity against human PANC1 cells; assay type: functional, cell-based
PANC-1 [2] = test: Cytotoxicity against human PANC1 cells assessed as decrease in cell viability after 72 hrs by MTT assay; assay type: functional, cell-based; conditions: PANC-1, 72 h

Compound	pIC50 (PANC-1 [1])	pIC50 (PANC-1 [2])
COC(=O)c1ccc2c(c1)nc(NC(=O)c1ccccc1)n2CCCc1ccccc1	5.30	–
CCN(CC)CCNC(=O)c1ccc(NCCN2C(=O)c3ccccc3C2=O)cc1	–	5.30
